Test results from DBAASP.
Values after ≈ are worked out from the molar mass of the structure shown.

What was measured:
Experiment in all cases: ≥ marks a high value that may be exact or a test limit, other limits are often not marked, values filed in µg/mL are converted to µM
[1] = tested on: Salmonella enterica subsp. enterica serovar Pullorum ATCC 7913
[2] = tested on: Candida tropicalis CGMCC 2.1975
[3] = tested on: Staphylococcus aureus ATCC 43300
[4] = tested on: Candida parapsilosis CGMCC 2.3989
[5] = tested on: Staphylococcus aureus ATCC 25923
[6] = tested on: Staphylococcus epidermidis ATCC 12228
Candida albicans = tested on: Candida albicans
[7] = tested on: Salmonella enterica subsp. enterica serovar Typhimurium ATCC 14028
[8] = tested on: Staphylococcus aureus ATCC 29213
Escherichia coli 1005 = tested on: Escherichia coli 1005
[9] = tested on: Candida krusei CGMCC 2.1857
[10] = tested on: Staphylococcus aureus CMCC 26003
[11] = tested on: Listeria monocytogenes ATCC 19115
[12] = tested on: Candida albicans CCARM 14001
[13] = tested on: Aspergillus flavus KCTC 6905
[14] = tested on: Trichoderma viride KCTC 16992
[15] = tested on: Fusarium solani KCTC 6326
[16] = tested on: Fusarium graminearum KCTC 16656
[17] = tested on: Candida albicans KCTC 7270
[18] = tested on: Candida krusei CCARM 14017
[19] = tested on: Fusarium verticillioides KCTC 6149
[20] = tested on: Candida albicans CCARM 14007
[21] = tested on: Colletotrichum gloeosporioides KCTC 6169
[22] = tested on: Trichophyton rubrum KCTC 6345
[23] = tested on: Fusarium oxysporum KCTC 16909
[24] = tested on: Candida parapsilosis CCARM 14016
[25] = tested on: Candida albicans CCARM 14004
[26] = tested on: Candida albicans CCARM 14020
[27] = tested on: Trichoderma virens KCTC 16924
[28] = tested on: Klebsiella pneumoniae ATCC 700603
[29] = tested on: Staphylococcus aureus Q14-0320
[30] = tested on: Staphylococcus aureus RN4220
[31] = tested on: Staphylococcus aureus MRSA-15
[32] = tested on: Acinetobacter baumannii Q12-0867
Escherichia coli = tested on: Escherichia coli
[33] = tested on: Pseudomonas aeruginosa Q14-0208
[34] = tested on: Klebsiella pneumoniae Q14-0095
[35] = tested on: Enterococcus faecalis JH-2-2
[36] = tested on: Pseudomonas aeruginosa PAO1
[37] = tested on: Klebsiella pneumoniae NCTC 13442
[38] = tested on: Salmonella typhimurium SL1344
Pseudomonas aeruginosa = tested on: Pseudomonas aeruginosa
Escherichia coli K-12 = tested on: Escherichia coli K-12
[39] = tested on: Staphylococcus aureus Q14-0325
[40] = tested on: Acinetobacter baumannii Q13-0717
Campylobacter jejuni = tested on: Campylobacter jejuni
[41] = tested on: Campylobacter jejuni NCTC 11351
[42] = tested on: Pseudomonas aeruginosa Q14-0890
[43] = tested on: Listeria monocytogenes NCTC 11994
[44] = tested on: Pseudomonas aeruginosa ATCC 27853
[45] = tested on: Staphylococcus aureus NCTC 12493

## NC(=O)[C@H](Cc1ccccc1)NC(=O)[C@H](Cc1ccccc1)NC(=O)[C@H](CCCN=C(N)N)NC(=O)[C@H](CCCN=C(N)N)NC(=O)[C@H](Cc1ccccc1)NC(=O)[C@H](CCCN=C(N)N)NC(=O)[C@H](CCCN=C(N)N)NC(=O)[C@H](Cc1ccccc1)NC(=O)[C@@H](N)Cc1ccccc1 [FFRRFRRFF]
[1]
  MIC: ≥ 32 µM
[2]
  MIC: 4 µM (≈ 5.51 µg/mL)
[3]
  MIC: 4 µM (≈ 5.51 µg/mL)
[4]
  MIC: ≥ 64 µM
[5]
  MIC: 4 µM (≈ 5.51 µg/mL)
[6]
  MIC: 4 µM (≈ 5.51 µg/mL)
Candida albicans
  MIC: 11.3 µM (≈ 15.6 µg/mL)
[7]
  MIC: 4 µM (≈ 5.51 µg/mL)
[8]
  MIC: 8 µM (≈ 11 µg/mL)
Escherichia coli 1005
  MIC: 8 µM (≈ 11 µg/mL)
[9]
  MIC: 4 µM (≈ 5.51 µg/mL)

## CC[C@H](C)[C@H](NC(=O)[C@H](CCCN=C(N)N)NC(=O)[C@H](CCCN=C(N)N)NC(=O)[C@H](CC(C)C)NC(=O)[C@@H](N)Cc1ccccc1)C(=O)N[C@@H](CCCN=C(N)N)C(=O)N[C@H](C(N)=O)C(C)C [FLRRIRV]
[10]
  MIC: ≥ 133 µM
[11]
  MIC: ≥ 133 µM

## NCCCC[C@H](NC(=O)[C@H](CCCCN)NC(=O)[C@H](Cc1cnc[nH]1)NC(=O)[C@H](CCCCN)NC(=O)[C@H](CCCCN)NC(=O)[C@H](Cc1cnc[nH]1)NC(=O)[C@H](CCCCN)NC(=O)[C@H](CCCCN)NC(=O)[C@H](Cc1cnc[nH]1)NC(=O)[C@H](CCCCN)NC(=O)[C@H](CCCCN)NC(=O)[C@H](Cc1cnc[nH]1)NC(=O)[C@H](CCCCN)NC(=O)[C@H](CCCCN)NC(=O)[C@H](Cc1cnc[nH]1)NC(=O)[C@H](CCCCN)NC(=O)[C@H](CCCCN)NC(=O)[C@H](Cc1cnc[nH]1)NC(=O)[C@H](CCCCN)NC(=O)[C@H](CCCCN)NC(=O)[C@H](Cc1cnc[nH]1)NC(=O)[C@H](CCCCN)NC(=O)[C@H](CCCCN)NC(=O)[C@@H](N)Cc1cnc[nH]1)C(N)=O [HKKHKKHKKHKKHKKHKKHKKHKK]
[12]
  MIC: 8 µM (≈ 25.3 µg/mL)
[13]
  MIC: 2 µM (≈ 6.33 µg/mL)
[14]
  MIC: 1 µM (≈ 3.16 µg/mL)
[15]
  MIC: 1 µM (≈ 3.16 µg/mL)
[16]
  MIC: 4 µM (≈ 12.7 µg/mL)
[17]
  MIC: 8 µM (≈ 25.3 µg/mL)
[18]
  MIC: 4 µM (≈ 12.7 µg/mL)
[19]
  MIC: 2 µM (≈ 6.33 µg/mL)
[20]
  MIC: 8 µM (≈ 25.3 µg/mL)
[21]
  MIC: 1 µM (≈ 3.16 µg/mL)
[22]
  MIC: 2 µM (≈ 6.33 µg/mL)
[23]
  MIC: 2 µM (≈ 6.33 µg/mL)
[24]
  MIC: 8 µM (≈ 25.3 µg/mL)
[25]
  MIC: 8 µM (≈ 25.3 µg/mL)
[26]
  MIC: 8 µM (≈ 25.3 µg/mL)
[27]
  MIC: 4 µM (≈ 12.7 µg/mL)

## NCCCC[C@H](NC(=O)[C@H](CCCCN)NC(=O)[C@H](Cc1cnc[nH]1)NC(=O)[C@H](CCCCN)NC(=O)[C@H](CCCCN)NC(=O)[C@H](Cc1cnc[nH]1)NC(=O)[C@H](CCCCN)NC(=O)[C@H](CCCCN)NC(=O)[C@@H](N)Cc1cnc[nH]1)C(N)=O [HKKHKKHKK]
[12]
  MIC: ≥ 64 µM
[13]
  MIC: 16 µM (≈ 19.2 µg/mL)
[14]
  MIC: 16 µM (≈ 19.2 µg/mL)
[15]
  MIC: 16 µM (≈ 19.2 µg/mL)
[16]
  MIC: ≥ 32 µM
[17]
  MIC: ≥ 64 µM
[18]
  MIC: 16 µM (≈ 19.2 µg/mL)
[19]
  MIC: 16 µM (≈ 19.2 µg/mL)
[20]
  MIC: ≥ 64 µM
[21]
  MIC: 8 µM (≈ 9.58 µg/mL)
[22]
  MIC: ≥ 32 µM
[23]
  MIC: ≥ 32 µM
[24]
  MIC: ≥ 32 µM
[25]
  MIC: ≥ 64 µM
[26]
  MIC: ≥ 64 µM
[27]
  MIC: 16 µM (≈ 19.2 µg/mL)

## CC[C@H](C)[C@H](NC(=O)CNC(=O)[C@H](CCCN=C(N)N)NC(=O)CNC(=O)[C@H](CCCCN)NC(=O)[C@H](CC(N)=O)NC(=O)[C@H](CCCCN)NC(=O)[C@H](CC(=O)O)NC(=O)[C@H](CCCN=C(N)N)NC(=O)[C@H](CS)NC(=O)[C@H](Cc1ccc(O)cc1)NC(=O)[C@@H](NC(=O)[C@H](CCCCN)NC(=O)[C@H](CC(C)C)NC(=O)[C@H](CCCN=C(N)N)NC(=O)[C@@H](NC(=O)[C@H](Cc1ccccc1)NC(=O)[C@@H](N)CCCCN)C(C)C)[C@@H](C)CC)C(=O)N[C@@H](CO)C(=O)N[C@@H](Cc1ccccc1)C(=O)O [KFVRLKIYCRDKNKGRGISF]
[28]
  MIC: 52.7 µM (≈ 128 µg/mL)
[29]
  MIC: ≥ 52.7 µM
[30]
  MIC: ≥ 52.7 µM
[31]
  MIC: ≥ 52.7 µM
[32]
  MIC: 26.3 µM (≈ 64 µg/mL)
Escherichia coli
  MIC: 52.7 µM (≈ 128 µg/mL)
[33]
  MIC: ≥ 52.7 µM
[34]
  MIC: ≥ 52.7 µM
[35]
  MIC: ≥ 52.7 µM
[36]
  MIC: 52.7 µM (≈ 128 µg/mL)
[37]
  MIC: ≥ 52.7 µM
[38]
  MIC: ≥ 52.7 µM
Pseudomonas aeruginosa
  MIC: 13.2 µM (≈ 32 µg/mL)
Escherichia coli K-12
  MIC: 26.3 µM (≈ 64 µg/mL)
[8]
  MIC: > 52.7 µM
[39]
  MIC: 26.3 µM (≈ 64 µg/mL)
[40]
  MIC: ≥ 52.7 µM
Campylobacter jejuni
  MIC: ≥ 52.7 µM
[41]
  MIC: ≥ 52.7 µM
[42]
  MIC: 26.3 µM (≈ 64 µg/mL)
[43]
  MIC: ≥ 52.7 µM
[44]
  MIC: 52.7 µM (≈ 128 µg/mL)
[45]
  MIC: 26.3 µM (≈ 64 µg/mL)
